From patent US20050171116A1, “Enhancing the efficacy of tubercular drugs” (priority 2004, published 2005)

Legend:
[1] = tested on: Staphylococci; experiment: Antibacterial activity in broth, culture growth after 24 hrs; format: cell-based
[2] = tested on: sensitive strains of Mycobacterium Tuberculosis bacilli (MTB); experiment: Antibacterial efficacy in LJ medium, in vitro culture; format: cell-based
[3] = tested on: AFB; experiment: Sputum AFB test (Ziehl-Neelson stain) in pulmonary tuberculosis patients; format: in vivo, human
Protocol: Fifty four patients suffering from pulmonary tuberculosis were included in this study. Thirty patients were treated with four anti-tubercular drugs only. Twenty-four patients were treated with four anti-tubercular drugs and antioxidant drugs concomitantly.
Four antitubercular drugs were given by oral route to all 54 patients in doses and frequency as shown below for a period of 60 days. The dosage regime for the anti-microbial drugs is known in the art as “2EHRZ.” It is an oral daily capsule of rifampicin, a tablet of isoniazid, a tablet of Pyrizinamide, and a tablet of ethambutal.
Out of the total test population of fifty-four patients, twenty-four patients received, in addition to the above 2EHRZ regime, Factor Alpha tx for 60 days, administered daily, orally.
In both of the two groups, three sputum samples for each patient were collected and were analyzed for the presence of AFB after 15 days, after 30 days and after sixty days. Analysis was by the Ziehl-Neelson (hot) stain method. The reports were documented as positive for presence of bacilli & negative for absence of bacilli.
The first group (the control group) received Rifampicin, Isoniazid, Ethambutol and Pyrazinamide in daily oral doses mentioned above, on Out Patient Department (OPD) basis for 60 days. […]

[4] = tested on: Pseudomonas; experiment: Antibacterial activity in broth, culture growth after 24 hrs; format: cell-based
[5] = tested on: Escherichia coli; experiment: as above; format: cell-based

## Cc1c(C)c2c(c(C)c1O)CC[C@@](C)(CCC[C@H](C)CCC[C@H](C)CCCC(C)C)O2 [Factor Alpha tx, α-tocopherol]
[1]
  antibacterial activity: has antibacterial activity
[2]
  antibacterial efficacy: effective
[3]
  effect on sputum negativity of concurrent administration with routine anti tubercular agents: synergistic effects in augmenting sputum negativity
[4]
  antibacterial activity: has antibacterial activity
[5]
  antibacterial activity: has antibacterial activity
